{
  "source": "PubChem BioAssay (NCI)",
  "test_in_all_cases": "growth of human tumour cells (NCI), 48 h",
  "key": {"[1]": {"system": "M14 melanoma"}, "[2]": {"system": "HOP-62 NSCLC"}, "[3]": {"system": "MDA-MB-435"}, "[4]": {"system": "SF-539 CNS"}, "[5]": {"system": "SK-MEL-28 melanoma"}, "[6]": {"system": "SF-268 CNS"}, "[7]": {"system": "NCI-H460 lung"}, "[8]": {"system": "A549 NSCLC"}, "[9]": {"system": "K-562 leukemia"}, "[10]": {"system": "A498 renal"}, "[11]": {"system": "RPMI-8226 leukemia"}, "[12]": {"system": "NCI-H23 lung"}, "[13]": {"system": "UACC-257 melanoma"}, "[14]": {"system": "HCC-2998 colon"}, "[15]": {"system": "MCF7 breast"}, "[16]": {"system": "TK-10 renal"}, "[17]": {"system": "HS 578T breast"}, "[18]": {"system": "OVCAR-8 ovarian"}, "[19]": {"system": "U251 CNS"}, "[20]": {"system": "UACC-62 melanoma"}, "[21]": {"system": "COLO 205 colon"}, "[22]": {"system": "T-47D breast"}, "[23]": {"system": "HOP-92 NSCLC"}, "[24]": {"system": "OVCAR-3 ovarian"}, "[25]": {"system": "OVCAR-5 ovarian"}, "[26]": {"system": "HL-60(TB) leukemia"}},
  "note": "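In this assay, cells in 96-well plates receive the compound at five concentrations for 48 hours. Endpoints are linearly interpolated between the surrounding concentrations. Abbreviation: GI50, concentration required for 50% inhibition of growth. TGI marks complete inhibition of growth.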",
  "data": [
    {"smiles": "CCN1C2=C(SC(=S)C1=C1SC(C(=O)OC)=C(C(=O)OC)S1)SC(=Nc1ccc(OC)cc1)C2=O", "values": [
      {"measurement": "TGI", "setting": "[1]", "result": 3.75, "unit": "µM"},
      {"measurement": "GI50", "setting": "[2]", "result": 1.95, "unit": "µM"},
      {"measurement": "TGI", "setting": "[2]", "result": 3.8, "unit": "µM"},
      {"measurement": "GI50", "setting": "[3]", "result": 2.21, "unit": "µM"},
      {"measurement": "TGI", "setting": "[3]", "result": 5.55, "unit": "µM"},
      {"measurement": "GI50", "setting": "[4]", "result": 1.86, "unit": "µM"},
      {"measurement": "TGI", "setting": "[4]", "result": 3.77, "unit": "µM"},
      {"measurement": "GI50", "setting": "[5]", "result": 1.69, "unit": "µM"},
      {"measurement": "TGI", "setting": "[5]", "result": 3.25, "unit": "µM"},
      {"measurement": "GI50", "setting": "[6]", "result": 2.56, "unit": "µM"},
      {"measurement": "TGI", "setting": "[6]", "result": 7.64, "unit": "µM"},
      {"measurement": "GI50", "setting": "[7]", "result": 2.02, "unit": "µM"},
      {"measurement": "TGI", "setting": "[7]", "result": 4.65, "unit": "µM"},
      {"measurement": "GI50", "setting": "[8]", "result": 13.1, "unit": "µM"},
      {"measurement": "TGI", "setting": "[8]", "result": 62.5, "unit": "µM"},
      {"measurement": "GI50", "setting": "[9]", "result": 2.36, "unit": "µM"},
      {"measurement": "TGI", "setting": "[9]", "result": "> 100", "unit": "µM"},
      {"measurement": "GI50", "setting": "[10]", "result": 2.03, "unit": "µM"},
      {"measurement": "TGI", "setting": "[10]", "result": 5.37, "unit": "µM"},
      {"measurement": "GI50", "setting": "[11]", "result": 2.38, "unit": "µM"},
      {"measurement": "TGI", "setting": "[11]", "result": 9.19, "unit": "µM"},
      {"measurement": "GI50", "setting": "[12]", "result": 2.27, "unit": "µM"},
      {"measurement": "TGI", "setting": "[12]", "result": 4.17, "unit": "µM"},
      {"measurement": "GI50", "setting": "[13]", "result": 1.76, "unit": "µM"},
      {"measurement": "TGI", "setting": "[13]", "result": 3.87, "unit": "µM"},
      {"measurement": "GI50", "setting": "[14]", "result": 1.95, "unit": "µM"},
      {"measurement": "TGI", "setting": "[14]", "result": 3.66, "unit": "µM"},
      {"measurement": "GI50", "setting": "[15]", "result": 1.9, "unit": "µM"},
      {"measurement": "TGI", "setting": "[15]", "result": 5.75, "unit": "µM"},
      {"measurement": "GI50", "setting": "[16]", "result": 5.08, "unit": "µM"},
      {"measurement": "TGI", "setting": "[16]", "result": "> 100", "unit": "µM"},
      {"measurement": "GI50", "setting": "[17]", "result": 3.93, "unit": "µM"},
      {"measurement": "TGI", "setting": "[17]", "result": "> 100", "unit": "µM"},
      {"measurement": "GI50", "setting": "[18]", "result": 2.82, "unit": "µM"},
      {"measurement": "TGI", "setting": "[18]", "result": "> 100", "unit": "µM"},
      {"measurement": "GI50", "setting": "[19]", "result": 1.65, "unit": "µM"},
      {"measurement": "TGI", "setting": "[19]", "result": 3.27, "unit": "µM"},
      {"measurement": "GI50", "setting": "[20]", "result": 1.73, "unit": "µM"},
      {"measurement": "TGI", "setting": "[20]", "result": 3.84, "unit": "µM"},
      {"measurement": "GI50", "setting": "[21]", "result": 1.92, "unit": "µM"},
      {"measurement": "TGI", "setting": "[21]", "result": 5.74, "unit": "µM"},
      {"measurement": "GI50", "setting": "[22]", "result": 2.16, "unit": "µM"},
      {"measurement": "TGI", "setting": "[22]", "result": 5.88, "unit": "µM"},
      {"measurement": "GI50", "setting": "[23]", "result": 2.97, "unit": "µM"},
      {"measurement": "TGI", "setting": "[23]", "result": 26.1, "unit": "µM"},
      {"measurement": "GI50", "setting": "[24]", "result": 1.79, "unit": "µM"},
      {"measurement": "TGI", "setting": "[24]", "result": 3.39, "unit": "µM"},
      {"measurement": "GI50", "setting": "[25]", "result": 2.37, "unit": "µM"},
      {"measurement": "TGI", "setting": "[25]", "result": 6.19, "unit": "µM"},
      {"measurement": "GI50", "setting": "[26]", "result": 1.79, "unit": "µM"},
      {"measurement": "TGI", "setting": "[26]", "result": 6.83, "unit": "µM"}
    ]}
  ]
}
